Experimental data published in patent publication US11660303B2, “2-phenylimidazo[4,5-b]pyridin-7-amine derivates useful as inhibitors of mammalian tyrosine kinase ROR1 activity” (KANCERA AB, priority 2016, dated 2023).

Experiments:
PBMC from CLL patients = assay: CellTiter-Blue Cell Viability Assay, PBMC from CLL patients; format: cell-based; details: Homo sapiens, cell toxicity, culture 24, 48 and 72 h (time of the values not stated)
Description: (§1) The CellTiter-Blue® Cell Viability Assay provides a homogeneous, fluorometric method for estimating the number of viable cells present in multi-well plates. The assay uses the indicator dye resazurin to measure the metabolic capacity of cells. Viable cells retain the ability to reduce resazurin into resorufin, which is highly fluorescent.
(§2) Stock solutions (10 or 100 mM in DMSO) of compounds were serially diluted 1:2 in 11 concentrations and 25 nL/well (100 mM stock) or 50 nL/well (10 mM stock) were acoustically dispensed in assay plates with an EDC acoustic dispenser. Final starting concentration in the assay was 20 μM (0.2% DMSO) or 100 μM (0.1% DMSO) for test compounds.
(§3) Peripheral blood mononuclear cells (PBMC) from CLL patients or healthy volunteers were seeded in assay plates (384-well black/clear, Greiner #781091) pre-dispensed with compounds, 25 μL/well, and cultured for 24, 48 and 72 h. The cell concentration was 50 000 cells/well for PBMC from CLL patients or healthy volunteers. After 24, 48 and 72 h culture, Celltiter Blue reagent was added (5 μL/well) and the plates were incubated for 2 h. The plates were read in an Envision fluorescence reader (PerkinElmer) with Ex544 nm/Em590 nm. Results were calculated as % cytotoxicity compared to background (cells treated with 0.2% DMSO).
(§4) Thus, IC50 values for cell toxicity in PBMC from CLL patients as well as healthy volunteers for some compounds of the invention are shown in Table 3 as measured by the CellTiter-Blue® Cell Viability Assay.

[1] = system: PBMC from healthy volunteers; assay: CellTiter-Blue Cell Viability Assay, PBMC from healthy volunteers; format: cell-based; details: Homo sapiens, cell toxicity, culture 24, 48 and 72 h (time of the values not stated)
Description: as §1, §2, §3, §4

| SMILES | IC50 (PBMC from CLL patients) [nM] | IC50 [1] [µM] |
| --- | --- | --- |
| CCN1CCC(Nc2c(Br)cnc3[nH]c(-c4ccc(N5CCN(C)C(=O)C5)cc4)nc23)CC1 [Example 299, 4-(4-{6-Bromo-7-[(1-ethylpiperidin-4-yl)amino]-3H-imidazo[4,5-b]pyridin-2-yl}phenyl)-1-methylpiperazin-2-one] | 90 | > 20 |
| CCN1CCC(Nc2c(Cl)cnc3[nH]c(-c4ccc(N5CCN(Cc6cccc(C)n6)CC5)cc4)nc23)CC1 [Example 142, 6-Chloro-N-(1-ethylpiperidin-4-yl)-2-(4-{4-[(6-methylpyridin-2-yl)methyl]piperazin-1-yl}phenyl)-3H-imidazo[4,5-b]pyridin-7-amine] | 240 | 14.8 |
| COCCN1CCN(c2ccc(-c3nc4c(NC5CCN(Cc6ccc(OC)cc6)CC5)c(Cl)cnc4[nH]3)cc2)CC1 [Example 14, 6-Chloro-N-[1-(4-methoxybenzyl)piperidin-4-yl]-2-{4-[4-(2-methoxyethyl)piperazin-1-yl]phenyl}-3H-imidazo[4,5-b]pyridin-7-amine] | 420 | 15.6 |
| CN1CCC(Nc2c(Cl)cnc3[nH]c(-c4ccc(N5CCN(C)CC5)cc4)nc23)CC1 [Example 2, 6-Chloro-2-[4-(4-methylpiperazin-1-yl)phenyl]-N-(1-methylpiperidin-4-yl)-3H-imidazo[4,5-b]pyridin-7-amine] | 160 | > 20 |
| COCCN1CCN(c2ccc(-c3nc4c(NC5CCN(C)CC5)c(Cl)cnc4[nH]3)cc2)CC1=O [Example 230, 4-(4-{6-Chloro-7-[(1-methylpiperidin-4-yl)amino]-3H-imidazo[4,5-b]pyridin-2-yl}phenyl)-1-(2-methoxyethyl)piperazin-2-one] | 70 | > 20 |
| COCCN1CCN(c2ccc(-c3nc4c(NC5CCN(CC6CC6)CC5)c(Cl)cnc4[nH]3)cc2)CC1=O [Example 355, 4-[4-(6-Chloro-7-{[1-(cyclopropylmethyl)piperidin-4-yl]amino}-3H-imidazo[4,5-b]pyridin-2-yl)phenyl]-1-(2-methoxyethyl)piperrazin-2-one] | 110 | > 20 |
| Clc1cnc2[nH]c(-c3ccc(N4CCOCC4)cc3)nc2c1NC1CCN(Cc2cccs2)CC1 [Example 83, 6-Chloro-2-(4-morpholin-4-ylphenyl)-N-[1-(thiophen-2-ylmethyl)piperidin-4-yl]-3H-imidazo[4,5-b]pyridin-7-amine] | 1000 | > 20 |
| COCCN1CCN(c2ccc(-c3nc4c(NC5CCN(Cc6ccc(OC)cc6)CC5)c(Cl)cnc4[nH]3)cc2)CC1=O [Example 260] | 220 | > 20 |
| CN1CCC(Nc2c(Br)cnc3[nH]c(-c4ccc(N5CCN(Cc6ccccn6)CC5)cc4)nc23)CC1 [Example 115, 6-Bromo-N-(1-methylpiperidin-4-yl)-2-{4-[4-(pyridin-2-ylmethyl)piperazin-1-yl]phenyl}-3H-imidazo[4,5-b]pyridin-7-amine] | 40 | 16.2 |
| CN1CC[C@H](Nc2c(Cl)cnc3[nH]c(-c4ccc(N5CCN(Cc6ccncc6)CC5)cc4)nc23)C1 [Example 126, 6-Chloro-N-[(3S)-1-methylpyrrolidin-3-yl]-2-{4-[4-(pyridin-4-ylmethyl)piperazin-1-yl]phenyl}-3H-imidazo[4,5-b]pyridin-7-amine] | 130 | > 20 |
| COCCN1CCN(c2ccc(-c3nc4c(NC5CCN(CCC#N)CC5)c(Cl)cnc4[nH]3)cc2)CC1 [Example 396, 3-{4-[(6-Chloro-2-{4-[4-(2-methoxyethyl)piperazin-1-yl]phenyl}-3H-imidazo[4,5-b]pyridin-7-yl)amino]piperidin-1-yl}propanenitrile] | 190 | > 20 |
| CN1CCC(Nc2c(Cl)cnc3[nH]c(-c4ccc(N5CCNC(=O)C5)cc4)nc23)CC1 [Example 37, 4-(4-{6-Chloro-7-[(1-methylpiperidin-4-yl)amino]-3H-imidazo[4,5-b]pyridin-2-yl}phenyl)piperazin-2-one] | 290 | > 20 |
| COCCCN1CCN(c2ccc(-c3nc4c(NC5CCN(CCOC)CC5)c(Cl)cnc4[nH]3)cc2)CC1 [Example 308, 6-Chloro-N-[1-(2-methoxyethyl)piperidin-4-yl]-2-{4-[4-(3-methoxypropyl)piperazin-1-yl]phenyl}-3H-imidazo[4,5-b]pyridin-7-amine] | 650 | > 20 |
| Cc1noc(C)c1CN1CCN(c2ccc(-c3nc4c(NC5CCN(C)CC5)c(Cl)cnc4[nH]3)cc2)CC1 [Example 119, 6-Chloro-2-(4-{4-[(3,5-dimethylisoxazol-4-yl)methyl]piperazin-1-yl}phenyl)-N-(1-methylpiperidin-4-yl)-3H-imidazo[4,5-b]pyridin-7-amine] | 40 | 17 |
| CC(C)N1CCC(Nc2c(Cl)cnc3[nH]c(-c4ccc(N5CCN(CCNc6ccnn6C)CC5)cc4)nc23)CC1 [Example 326, 6-Chloro-N-[1-(1-methylethyl)piperidin-4-yl]-2-[4-(4-{2-[(1-methyl-1H-pyrazol-5-yl)amino]ethyl}piperazin-1-yl)phenyl]-3H-imidazo[4,5-b]pyridin-7-amine] | 260 | > 20 |
| CCN1CCC(Nc2c(Br)cnc3[nH]c(-c4ccc(N5CCNC(=O)CC5)cc4)nc23)CC1 [Example 53, 1-(4-{6-Bromo-7-[(1-ethylpiperidin-4-yl)amino]-3H-imidazo[4,5-b]pyridin-2-yl}phenyl)-1,4-diazepan-5-one] | 480 | > 20 |
| CCN1CCC(Nc2c(Cl)cnc3[nH]c(-c4ccc(N5CCN(Cc6cncs6)CC5)cc4)nc23)CC1 [Example 320, 6-Chloro-N-(1-ethylpiperidin-4-yl)-2-{4-[4-(1,3-thiazol-5-ylmethyl)piperazin-1-yl]phenyl}-3H-imidazo[4,5-b]pyridin-7-amine] | 100 | > 20 |
| CCN1CCC(Nc2c(Br)cnc3[nH]c(-c4ccc(N5CCN(Cc6cccnc6)CC5)cc4)nc23)CC1 [Example 174, 6-Bromo-N-(1-ethylpiperidin-4-yl)-2-{4-[4-(pyridin-3-ylmethyl)piperazin-1-yl]phenyl}-3H-imidazo[4,5-b]pyridin-7-amine] | 10 | > 20 |
| CCN1CCC(Nc2c(Br)cnc3[nH]c(-c4ccc(N5CCN(C(=O)C(C)(C)C)CC5)cc4)nc23)CC1 [Example 363, 6-Bromo-2-{4-[4-(2,2-dimethylpropanoyl)piperazin-1-yl]phenyl}-N-(1-ethylpiperidin-4-yl)-3H-imidazo[4,5-b]pyridin-7-amine] | 140 | 3.1 |
| CC(C)N1CCC(Nc2c(Cl)cnc3[nH]c(-c4ccc(N5CCN(Cc6cccnc6)CC5)cc4)nc23)CC1 [Example 168, 6-Chloro-N-[1-(1-methylethyl)piperidin-4-yl]-2-{4-[4-(pyridin-3-ylmethyl)piperazin-1-yl]phenyl}-3H-imidazo[4,5-b]pyridin-7-amine] | 230 | 17.2 |
| CN1CCC(Nc2c(Cl)cnc3[nH]c(-c4ccc(N5CCC(CCO)CC5)cc4)nc23)CC1 [Example 254, 2-[1-(4-{6-Chloro-7-[(1-methylpiperidin-4-yl)amino]-3H-imidazo[4,5-b]pyridin-2-yl}phenyl)piperidin-4-yl]ethanol] | 50 | 16.3 |
| CN1CCC(Nc2c(Br)cnc3[nH]c(-c4ccc(N5CCN(c6ccncc6)CC5)cc4)nc23)CC1 [Example 16, 6-Bromo-N-(1-methylpiperidin-4-yl)-2-[4-(4-pyridin-4-ylpiperazin-1-yl)phenyl]-3H-imidazo[4,5-b]pyridin-7-amine] | 80 | 17.2 |
| COCCN1CCN(c2ccc(-c3nc4c(NC5CCN(Cc6ccc(O)c(OC)c6)CC5)c(Cl)cnc4[nH]3)cc2)CC1 [Example 103, 4-({4-[(6-Chloro-2-{4-[4-(2-methoxyethyl)piperazin-1-yl]phenyl}-3H-imidazo[4,5-b]pyridin-7-yl)amino]piperidin-1-yl}methyl)-2-methoxyphenol] | 350 | > 20 |
| CC(C)OCCN1CCN(c2ccc(-c3nc4c(NC5CCN(Cc6ccc(N(C)C)cc6)CC5)c(Cl)cnc4[nH]3)cc2)CC1 [Example 90, 6-Chloro-N-{1-[4-(dimethylamino)benzyl]piperidin-4-yl}-2-(4-{4-[2-(1-methylethoxy)ethyl]piperazin-1-yl}phenyl)-3H-imidazo[4,5-b]pyridin-7-amine] | 870 | > 20 |
| CC(C)N1CCC(Nc2c(Br)cnc3[nH]c(-c4ccc(N5CCN(CCC#N)CC5)cc4)nc23)CC1 [Example 337, 3-{4-[4-(6-Bromo-7-{[1-(1-methylethyl)piperidin-4-yl]amino}-3H-imidazo[4,5-b]pyridin-2-yl)phenyl]piperazin-1-yl}propanenitrile] | 250 | > 20 |
| CCOCCN1CCN(c2ccc(-c3nc4c(NC5CCN(CCC#N)CC5)c(Br)cnc4[nH]3)cc2)CC1=O [Example 406, 3-{4-[(6-Bromo-2-{4-[4-(2-ethoxyethyl)-3-oxopiperrazin-1-yl]phenyl}-3H-imidazo[4,5-b]pyridin-7-yl)amino]piperidin-1-yl}propanenitrile] | 230 | > 20 |
